Tests used:
MDA-MB-231 cells [1] = test: Apoptosis assay of suspended cells (annexin V, flow cytometry); assay type: cell-based, human; conditions: up to 10 μM, within 6 h
Procedure: Quadrant gates were positioned based on cell autofluorescence (negative) staurosporine-treated (positive) controls. Apoptosis was calculated to be the percent of annexin V-positive cells.

MDA-MB-231 cells [2] = test: Experimental metastasis assay (tail vein injection); assay type: in vivo, nude mice; conditions: 150 mg/kg p.o. pre-administered; 1 and 6 h
Procedure: To determine experimental metastasis burden, lungs were removed 1 and 6 h post cell injection, rinsed in PBS, and dorsal plus ventral fluorescent images acquired using OV100 imaging. A common threshold for mCherry fluorescence was set for all images and the total fluorescent lung area was calculated using Image J.

[3] = tested on: interleukin-6 (IL-6) production in 4T1 cells; test: IL-6 ELISA after TNFα stimulation; assay type: cell-based, murine; conditions: 0.25 to 1.0 μM; TNFα 10 ng/ml, 24 h
Procedure: After 1 h, recombinant tumor necrosis factor-α (TNFα eBioScience) was added (10 ng/ml) and after 24 h, IL-6 levels in conditioned media were measured using anti-mouse IL-6 ELISA kit (eBioScience).

4T1 cells [4] = test: Adherent and suspended (non-adherent) cell growth, cell numbers; assay type: cell-based, murine
Procedure: Anchorage-dependent, spheroid, and soft agar cell growth assays: Cells (2×10^5) were plated per 35 mm well under adherent (tissue culture-treated) and non-adherent conditions (poly-HEMA-coated) in 6-well plates (Costar) in growth media. Between 24 and 168 h, all cells were collected, a single cell suspension was prepared by limited trypsin-EDTA treatment, and viable cells were enumerated by trypan blue staining and counting (ViCell XR, Beckman). For spheroid area determination, cells were imaged after 72 h in phase contrast using an Olympus IX51 microscope. Area was calculated using Image J software (version 1.43). For soft agar assays, 48-well plates were coated with a 1:4 mix of 2% agar (EM Science) in 0.2 ml growth media (bottom layer). 5×10^4 cells were plated per well (in triplicate) in a mixture of 0.3% agar in 0.2 ml growth media (top layer). […] After 10 days, colonies were imaged in phase contrast, enumerated by counting 9 fields (3 fields per well), and total area determined using Image J. For all analyses, experimental points were performed in triplicate and were experiments were repeated at least two times.

4T1 cells [5] = test: Time lapse scratch-wound closure motility assay; assay type: cell-based
Procedure: Cell migration assays: Serum-stimulated chemotaxis using Millicell (12 mm diameter with 8 μm pores; Millipore) chambers were performed as described previously^49. Both sides of membrane were coated with fibronectin (10 μg/ml) and chemotaxis was stimulated by addition of 10% FBS to the lower chamber. Data points represent cell counts (9 fields) from three migration chambers from at least two independent experiments. For scratch-wound closure motility assays, cells were seeded onto fibronectin-coated (10 μg/ml) glass bottom 12 well plates (MatTek) and serum starved (0.5% FBS) for 16 h. Cells were wounded with a pipette tip, washed with phosphate-buffered salin (PBS), and replenished with 10% FBS media with or without FAK inhibitor (1 μM). Time-lapse series was obtained by acquiring images at 10 min intervals for up to 22 h, at 37° C. with humidity and CO2 regulation using a 10× objective on an automated stage (Olympus IX81). Cell trajectories and distance traveled were measured by tracking nucleus position over time using Image J.

4T1 cells [6] = test: Cell adhesion to fibronectin; assay type: cell-based, murine
[7] = tested on: caspase 3 cleavage in 4T1 cells; test: Cleaved caspase 3 immunoblotting of cell lysates; assay type: cell-based, murine; conditions: 24 h
Text: Immunoblotting: Protein extracts of cells were made using lysis buffer containing 1% Triton X-100, 1% sodium deoxycholate, and 0.1% SDS and were separated by 4-12% SDS-PAGE (sodium dodecyl sulfate polyacrylamide gel electrophoresis) and sequential immunoblotting performed as described in Mitra S K, Lim S T, Chi A, Schlaepfer D D. Intrinsic focal adhesion kinase activity controls orthotopic breast carcinoma metastasis via the regulation of urokinase plasminogen activator expression in a syngeneic tumor model. Oncogene 2006; 25:4429-40. Relative expression levels and phospho-specific antibody reactivity were measured by densitometry analyses of blots using Image J (version 1.42q). Inhibition of FAK and p130Cas tyrosine phosphorylation was quantified by calculating the ratio of pY397 FAK protein to total FAK. […]
Cell pellets were resuspended in 300 p. […] Samples were analyzed by flow cytometry (FACSCalibur, Becton-Dickinson) and cell cycle analyses were performed by ModFit LT3.2 software (Verity software house). Hypodiploid DNA content as a measure of cell apoptosis was detected by PI staining as described ^29. […] Apoptosis was calculated to be the percent of annexin V-positive cells. In the soft agar assays, apoptosis was quantified by visual inspection of at least 200 cells and was defined as the appearance of membrane blebbing or cell shrinkage. […]

With `CNC(=O)c1ccccc1Nc1cc(Nc2ccc(N3CCOCC3)cc2OC)ncc1C(F)(F)F` [PND-1186] the “MDA-MB-231 apoptosis in suspension” value (MDA-MB-231 cells [1]) was “did not promote increased MDA-MB-231 apoptosis”, the “accumulation of tumor cells in the lungs” value (MDA-MB-231 cells [2]) was “significantly inhibited the accumulation of tumor cells in the lungs” and the “TNFα-triggered IL-6 release” value [3] was “inhibited IL-6 release in a dose-dependent manner”. For the same compound, the “reduction of cell number, suspended cells” value (4T1 cells [4]; 0.1 μM, 72 h, vs DMSO) was “significant (p<0.001)”, the “cell proliferation, FAK-Cas phosphorylation and cell death” value (4T1 cells [4]; 100 nM, colonies in soft agar or non-adherent conditions) was “inhibited cell proliferation, FAK-Cas phosphorylation, and induced cell death” and the “total cell number, adherent cells” value (4T1 cells [4]; 1.0 μM, 72 h) was “decreased in number”. The “total cell number, adherent cells” value (4T1 cells [4]; 0.1 to 1.0 μM, 24 or 48 h) was “no differences were observed”, the “total cell number, suspended cells” value (4T1 cells [4]; all concentrations (0.1 to 1.0 μM), 48 h) was “reduced cell numbers” and the “cytotoxicity to cells in culture” value (4T1 cells [4]; cells in culture) was “non-cytotoxic”. The “cell detachment or death” value (4T1 cells [5]; 1 μM over 22 h) was “No evidence of 4T1 cell detachment or death”, the wound closure (4T1 cells [5]; 1 μM, 22 h (DMSO 89%)) was 40% and the “effect on 4T1 cell adhesion to fibronectin” value (4T1 cells [6]) was “did not affect 4T1 cell adhesion to fibronectin”. The “cleaved caspase 3, adherent cells” value [7] was “not detectable” and the “cleaved caspase 3, suspended cells” value [7] was “increased in PND-1186-treated suspended cells (maximal at 0.4 μM)”.

— patent publication US20120196858A1, “METHOD OF PROMOTING APOPTOSIS AND INHIBITING METASTASIS” (Poniard Pharmaceuticals ,Inc., priority 2009, published 2012)
